For one assay, the target named is mSortilin (Mus musculus (Mouse), UniProt Q6PHU5). In words: mSortilin affinity assay (displacement of 3H-neurotensin, SPA). Format: binding.
The target of assay [1] is human sortilin (S-18 cells) (Homo sapiens (Human), UniProt Q99523). Briefly: Endogenous PGRN endocytosis assay (PGRN ELISA of media). It counts as cell-based. Conditions: for PGRN levels in cell culture media (FIG. 1): PGRN allowed to accumulate 24 hrs, then compounds for further 24 hrs.
For assay [2], the target named is human sortilin (HEK 293 / S-18 cells) (Homo sapiens (Human), UniProt Q99523). In words: Cellomics progranulin assay (PGRN binding/endocytosis, staining intensity). Format: cell-based. Conditions: compounds 30 min, then PGRN 60 min.
Sequence of human sortilin (HEK 293 / S-18 cells) (Q99523 78-831): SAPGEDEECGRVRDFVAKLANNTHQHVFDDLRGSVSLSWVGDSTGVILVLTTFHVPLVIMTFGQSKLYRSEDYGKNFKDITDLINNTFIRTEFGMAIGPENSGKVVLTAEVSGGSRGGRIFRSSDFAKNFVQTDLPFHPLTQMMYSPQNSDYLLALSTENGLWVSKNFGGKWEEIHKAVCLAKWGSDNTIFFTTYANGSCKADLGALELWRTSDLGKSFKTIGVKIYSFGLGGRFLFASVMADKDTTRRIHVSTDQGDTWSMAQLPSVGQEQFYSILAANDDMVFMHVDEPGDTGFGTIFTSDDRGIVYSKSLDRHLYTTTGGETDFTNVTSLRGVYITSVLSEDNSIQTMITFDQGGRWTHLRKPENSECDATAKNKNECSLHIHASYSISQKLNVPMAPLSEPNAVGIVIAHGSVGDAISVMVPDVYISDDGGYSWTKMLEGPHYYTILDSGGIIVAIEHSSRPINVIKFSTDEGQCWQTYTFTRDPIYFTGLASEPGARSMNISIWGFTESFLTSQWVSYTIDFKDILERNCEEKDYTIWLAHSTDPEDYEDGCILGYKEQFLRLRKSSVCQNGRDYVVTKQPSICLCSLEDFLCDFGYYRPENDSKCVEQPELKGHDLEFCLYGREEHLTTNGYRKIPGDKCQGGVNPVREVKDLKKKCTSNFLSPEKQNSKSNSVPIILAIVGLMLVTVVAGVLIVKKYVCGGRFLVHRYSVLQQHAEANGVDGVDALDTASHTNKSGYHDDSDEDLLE
Description: Cellomics Progranulin Assay
Transfected HEK 293 cells (with control or sortilin expression plasmids) or stable HEK293 cells expressing human sortilin (S-18) were used in this assay. Cells are trypsinized and plated in 96 well plates. In the case of transiently transfected cells, they were plated 24 hrs after transfection in 96 well plates. Next day, media was changed completely and test compounds added to cells for 30 min. followed by PGRN for 60 min. At the end of the study (after 1.5 hrs), the cells were fixed and stained for sortilin and progranulin. All stained plates were analyzed by Cellomics Array Scan (Thermo Fischer) and average staining intensity for PGRN and sortilin are calculated per cell in each well.
The next assay has as its target hSortilin (Homo sapiens (Human), UniProt Q99523). Briefly: hSortilin affinity assay (displacement of 3H-neurotensin, SPA). It counts as binding. Conditions: for IC50: [3H]-Neurotensin 5 nM, 150 nM 6his-Sortilin, read-out: hSortilin NTS Binding IC50; for Ki: from IC50 by Cheng-Prusoff, Kd neurotensin 100 nM.

As a reminder, the IC50 is the point on the concentration scale where inhibition reaches its midpoint. The Ki is a measure of affinity in units of concentration, obtained from inhibition or displacement. Low readings indicate higher affinity, high ones lower affinity.

Sequence of human sortilin (S-18 cells) (Q99523 78-831): as above
Sequence of hSortilin (Q99523 34-755): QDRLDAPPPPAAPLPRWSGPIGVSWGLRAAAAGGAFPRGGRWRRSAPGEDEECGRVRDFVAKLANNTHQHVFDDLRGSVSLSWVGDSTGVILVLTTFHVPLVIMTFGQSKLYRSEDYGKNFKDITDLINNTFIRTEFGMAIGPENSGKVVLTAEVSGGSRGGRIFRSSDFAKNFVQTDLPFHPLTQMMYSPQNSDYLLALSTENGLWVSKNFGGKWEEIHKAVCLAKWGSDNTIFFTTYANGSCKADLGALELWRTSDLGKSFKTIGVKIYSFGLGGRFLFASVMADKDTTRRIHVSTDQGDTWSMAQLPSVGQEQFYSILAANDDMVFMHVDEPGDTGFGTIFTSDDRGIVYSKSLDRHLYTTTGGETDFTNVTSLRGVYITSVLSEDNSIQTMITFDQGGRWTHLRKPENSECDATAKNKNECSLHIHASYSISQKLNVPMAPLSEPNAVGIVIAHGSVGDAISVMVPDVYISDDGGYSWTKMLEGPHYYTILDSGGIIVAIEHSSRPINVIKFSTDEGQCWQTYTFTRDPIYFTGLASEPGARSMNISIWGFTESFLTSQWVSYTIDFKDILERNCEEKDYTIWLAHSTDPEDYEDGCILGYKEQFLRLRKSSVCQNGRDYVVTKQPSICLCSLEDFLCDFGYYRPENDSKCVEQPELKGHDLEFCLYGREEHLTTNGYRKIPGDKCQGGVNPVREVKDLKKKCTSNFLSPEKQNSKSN
Sequence of mSortilin (Q6PHU5 74-825): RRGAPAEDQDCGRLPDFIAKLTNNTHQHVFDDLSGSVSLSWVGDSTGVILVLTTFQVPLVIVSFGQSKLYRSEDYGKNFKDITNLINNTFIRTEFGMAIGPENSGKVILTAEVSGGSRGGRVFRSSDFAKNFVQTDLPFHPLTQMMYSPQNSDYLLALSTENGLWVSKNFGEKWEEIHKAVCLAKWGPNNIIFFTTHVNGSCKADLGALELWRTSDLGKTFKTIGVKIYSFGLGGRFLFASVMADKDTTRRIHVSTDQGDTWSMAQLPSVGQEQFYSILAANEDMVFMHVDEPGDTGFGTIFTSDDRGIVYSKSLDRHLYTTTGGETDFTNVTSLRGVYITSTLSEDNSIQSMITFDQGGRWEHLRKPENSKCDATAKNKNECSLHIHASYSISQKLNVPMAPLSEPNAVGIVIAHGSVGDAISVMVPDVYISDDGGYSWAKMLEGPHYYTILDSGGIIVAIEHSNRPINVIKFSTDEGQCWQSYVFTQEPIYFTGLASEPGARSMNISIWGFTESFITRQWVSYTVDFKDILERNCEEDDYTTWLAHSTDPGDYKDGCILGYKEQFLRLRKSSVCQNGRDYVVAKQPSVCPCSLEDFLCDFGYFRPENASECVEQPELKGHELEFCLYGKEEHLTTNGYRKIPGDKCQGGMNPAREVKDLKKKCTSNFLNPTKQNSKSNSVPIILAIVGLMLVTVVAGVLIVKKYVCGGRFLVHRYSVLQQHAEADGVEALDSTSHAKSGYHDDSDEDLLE
Description for mSortilin: Mouse his-Sortilin was purchased from R&D Systems.
The Sortilin assay was performed in total volume of 40 ul in 50 mM HEPES pH 7.4 assay buffer containing 100 mM NaCl, 2.0 mM CaCl2, 0.1% BSA and 0.1% Tween-20. Varying concentration of compounds where pre-incubated for 30 min at RT with 50 nM of 6his-Sortilin. […] Ni chelate imaging beads (Perkin elmer) was added and the plate was slowly shacked in the dark for 60 min. The imaging beads were allowed minimum 6 hours settling time before the plate was read on a ViewLux with 360 sec exposure time. Dose-response evaluation of compounds was performed with 10 concentrations of drugs (covering 3 decades). IC50 values were calculated by nonlinear regression using the sigmoid concentration-response (variable slope) using Xlfit 4 (IDBS, UK). The results were given as Ki values (nM) derived from computer fitted IC50 values converted to Ki values using the Cheng-Prusoff equation (Ki=IC50/(1+(L/Kd))).

In the case of `Cc1cccc(NC(=O)c2ccc(C(F)(F)F)cc2C(=O)O)n1` [Example 1, N-(6-Methyl-pyridin-2-yl)-5-trifluoromethyl-phthalamic acid], the IC50 on mSortilin ([3H]-Neurotensin 5 nM, 50 nM 6his-Sortilin, read-out: mSortilin NTS Binding IC50) was 220 nM. Further, affinity on mSortilin (from IC50 by Cheng-Prusoff) was put at a Ki of 210 nM. In assay [1] (10 uM, media collected on day 3), the “increase in PGRN in cell culture media as compared to control wells” value was 85-100%. Besides, the “PGRN levels in cell culture media (FIG. 1)” value in assay [1] is given as “increase in PGRN levels”. Further, in assay [2], the “PGRN fluorescence intensity / binding or endocytosis of PGRN to sortilin expressing cells (FIG. 2)” value is given as “blocks binding or endocytosis of PGRN”.

In the case of `COc1cc(NC(=O)c2ccc(C(F)(F)F)cc2C(=O)O)ccn1` [Example 36, N-(2-Methoxy-pyridin-4-yl)-5-trifluoromethyl-phthalamic acid], at hSortilin, the IC50 was determined as 750 nM and the Ki was found to be 714 nM.

As to `COc1cccc(NC(=O)c2ccc(C(F)(F)F)cc2C(=O)O)n1` [Example 37, N-(6-Methoxy-pyridin-2-yl)-5-trifluoromethyl-phthalamic acid], on hSortilin, the IC50 amounted to 1300 nM and the Ki was 1240 nM.

On to `O=C(O)c1cc(C(F)(F)F)ccc1C(=O)NCc1ccccn1` [Example 38, N-Pyridin-2-ylmethyl-5-trifluoromethyl-phthalamic acid], for which, on hSortilin, the half-maximal inhibitory concentration (IC50) was found to be 1600 nM and the Ki is 1520 nM.

As for `O=C(O)c1cc(C(F)(F)F)ccc1C(=O)NCc1ccncc1` [Example 39, N-Pyridin-4-ylmethyl-5-trifluoromethyl-phthalamic acid], at hSortilin, the IC50 was determined as 7500 nM and affinity was put at a Ki of 7140 nM.

Consider `O=C(O)c1cc(C(F)(F)F)ccc1C(=O)NCc1cccnc1` [Example 40, N-Pyridin-3-ylmethyl-5-trifluoromethyl-phthalamic acid], for which, at hSortilin, the IC50 was 4800 nM and the Ki is 4570 nM.

For `CCCc1ccc(C(=O)Nc2cccc(C)n2)c(C(=O)O)c1` [Example 41, N-(6-Methyl-pyridin-2-yl)-5-propyl-phthalamic acid], on hSortilin, the IC50 was 3600 nM and the Ki stood at 3430 nM.

Regarding `C=C(C)c1ccc(C(=O)Nc2cccc(C)n2)c(C(=O)O)c1` [Example 42, N 5-Isopropenyl-N-(6-methyl-pyridin-2-yl)-phthalamic acid], on hSortilin, the IC50 came out at 5200 nM and the Ki stood at 4950 nM.

With `Cc1cccc(NC(=O)c2ccc(C(C)C)cc2C(=O)O)n1` [Example 43, N 5-Isopropyl-N-(6-methyl-pyridin-2-yl)-phthalamic acid], at hSortilin, the IC50 stood at 1100 nM and the Ki was 1050 nM.

With `Cc1nccc(NC(=O)c2ccc(C(F)(F)F)cc2C(=O)O)n1` [Example 44, 2-((2-methylpyrimidin-4-yl)carbamoyl)-5-(trifluoromethyl)benzoic acid], on hSortilin, the IC50 was determined as 300 nM and the Ki came out at 286 nM.

With `Cc1cnc(NC(=O)c2ccc(C(F)(F)F)cc2C(=O)O)nc1C` [Example 45, 2-((4,5-dimethylpyrimidin-2-yl)carbamoyl)-5-(trifluoromethyl)benzoic acid], at hSortilin, the IC50 stood at 200 nM and the Ki came out at 190 nM.

For `O=C(O)c1cc(C(F)(F)F)ccc1C(=O)Nc1ccc2c(n1)CCCC2` [Example 46, 2-((5,6,7,8-tetrahydroquinolin-2-yl)carbamoyl)-5-(trifluoromethyl)benzoic acid], on hSortilin, the IC50 was 88 nM and the affinity corresponds to a Ki of 84 nM.

`Cc1cccc(NC(=O)c2cc(C(F)(F)F)c(C(F)(F)F)cc2C(=O)O)n1` [Example 47, 2-((6-methylpyridin-2-yl)carbamoyl)-4,5-bis(trifluoromethyl)benzoic acid]: on hSortilin, the IC50 stood at 1200 nM and the affinity corresponds to a Ki of 1140 nM.

On to `O=C(O)c1cc(C(F)(F)F)c(C(F)(F)F)cc1C(=O)Nc1ccc2c(n1)CCCC2` [Example 48, 2-((5,6,7,8-tetrahydroquinolin-2-yl)carbamoyl)-4,5-bis(trifluoromethyl)benzoic acid], for which, on hSortilin, the IC50 came to 760 nM and the Ki was 721 nM.

Regarding `Cc1ccc(NC(=O)c2cc(C(F)(F)F)c(C(F)(F)F)cc2C(=O)O)nc1C` [Example 49, 2-((5,6-dimethylpyridin-2-yl)carbamoyl)-4,5-bis(trifluoromethyl)benzoic acid], at hSortilin, the IC50 came out at 750 nM and the Ki is 734 nM.

Turning to `Cc1nccc(NC(=O)c2cc(C(F)(F)F)c(C(F)(F)F)cc2C(=O)O)n1` [Example 50, 2-((2-methylpyrimidin-4-yl)carbamoyl)-4,5-bis(trifluoromethyl)benzoic acid], at hSortilin, the IC50 worked out at 620 nM and the Ki turned out to be 599 nM.

As to `Cc1cc(NC(=O)c2ccc(C(F)(F)F)cc2C(=O)O)cc(C)n1` [Example 51, 2-((2,6-dimethylpyridin-4-yl)carbamoyl)-5-(trifluoromethyl)benzoic acid], at hSortilin, the half-inhibitory concentration (IC50) is 640 nM and the affinity, expressed as Ki, was 614 nM.

For the molecule “scrambled neurotensin: scrambled neurotensin, sequence LIYPRNEYELRKP (SEQ ID NO:1); negative control (Scrambled Human Neurotensin) [reference compound]”, in assay [1], the “PGRN levels in cell culture media (FIG. 1)” value was “did not have any effect”. In addition, the “PGRN fluorescence intensity / binding or endocytosis of PGRN to sortilin expressing cells (FIG. 2)” value in assay [2] is “significantly increased”.

The values above are taken from patent publication US9682967B2.
